One series concerns the target T1, mouse α4β2 nAChRs (Mus musculus, UniProt O70174+Q9ERK7).
T1 construct: expressed in transfected cells; host or cells: mouse neuroblastoma-2a (neuro-2a) cells, transient transfection with Lipofectamine 3000
Briefly: Calcium 6 Ca2+ flux assay, neuro-2a cells transiently transfected with α4β2 nAChRs. Type of series: cell-based. (In general: Calcium flux is commonly read through the fluorescence of an indicator in the cells.)

The test system of another series is hTRPM8. Also noted: method as in PMID 31850745. The note with it: cited from earlier work.
For a further series, the system named is MDR1. Briefly: in vitro. The note with it: dog; for efflux ratio at 120 min, 5 μM: MDCK-MDR1, pH 7.4; for recovery at 120 min, 5 μM: MDCK-MDR1, pH 7.4, Recovery (%), pH 7.4, 120 minutes. As to the method: (§1) MDR1-MDCK Permeability. Pharmacokinetic experiments with compounds were performed by Absorption Systems (Exton, PA, USA). MDR1-MDCK cell monolayers were grown to confluence on collagen-coated, microporous membranes in 12-well assay plates. The permeability assay buffer was Hanks’ balanced salt solution containing 10 mM HEPES and 15 mM glucose at a pH of 7.4. The buffer in the receiver chamber also contained 1% bovine serum albumin. The dosing solution concentration was 5 […]
(§2) μM of test article in the assay buffer. Cell monolayers were dosed on the apical side (A-to-B) or basolateral side (B-to-A) and incubated at 37°C with 5% CO2 in a humidified incubator. Samples were […]
(§3) chambers at 0 and 120 minutes; samples were taken from the receiver chambers at 120 minutes. Each determination was performed in duplicate. The flux of lucifer yellow was also measured post-experimentally for each monolayer to ensure no damage was inflicted to the cell monolayers during the flux period. All samples were assayed by LC-MS/MS using electrospray ionization. Analytical conditions were carried out as previously described (REF:Journigan ACS CN 2020). The apparent permeability (Papp) and percent recovery were calculated as follows:
(§4) Papp = (dCr /dt) × Vr/(A × C0) (1)
(§5) Percent Recovery = 100 × ((Vr × Crfinal) + (Vd × Cd final))/(Vd × C0) (2) […]
(§6) dCr /dt is the slope of the cumulative receiver concentration versus time in M sµ -1;
(§7) Vr is the volume of the receiver compartment in cm3;
(§8) Vd is the volume of the donor compartment in cm3;
(§9) A is the area of the insert (1.13 cm2 for 12-well);
(§10) C0 is the measured concentration of the donor chamber at time 0 in μM;
(§11) Crfinal is the cumulative receiver concentration in μM at the end of the incubation period; Cdfinal is the concentration of the donor in μM at the end of the incubation period.
(§12) Efflux ratio (ER) is defined as Papp (B-to-A) / Papp (A-to-B).
(§13) Brain Penetration Potential Classification:
(§14) Papp (A-to-B) ≥ 3.0 and ER < 3.0: High
(§15) Papp (A-to-B) ≥ 3.0 and 10 > ER ≥ 3.0: Moderate

Series [1] deals with MDR1-MDCK cell monolayers. Briefly: in vitro. As to the method:
as §1, §2, §3, §4, §5, §6, §7, §8, §9, §10, §11, §12, §13, §14, §15

The nature of series [2]: Stability in mouse liver microsomes. Type of series: in vitro ADME. As to the method:
Mouse Liver Microsome Assays. These assays were carried out as detailed previously.
A general note: Microsomes from liver hold many membrane-bound enzymes, among them those of drug oxidation.

Another series deals with C57BL/6J mice. Briefly: Conditioned place preference (CPP) assay. The class given is in vivo, mouse. The protocol: CPP assays were completed in a three-chamber spatial place preference chamber (Harvard Apparatus, PanLab, dimensions: 47.5 × 27.5 × 47.5 cm) using male and female C57BL/6J mice. Time in chambers was recorded by motion tracking software (SMART 3.0). […] On day 1, a pre-test was completed wherein mice were placed in the central chamber and allowed free access to the apparatus for 20 min. Mice that spent >65% of the test in one chamber were excluded and the remaining mice were counterbalanced. For counterbalancing, mice were separated into groups of approximately equal bias, similar to previously published CPP methods. No exclusions were necessary for these studies. Following counterbalancing, no initial biases were noted. The mice received their designated drug injections on days 2, 4, 6, and 8, and received saline injections on days 3, 5, 7, and 9. Each conditioning period lasted 20 min. On day 10, a post-test was completed whereby the mice were again placed in the central chamber and allowed free access for 20 min. In total, 5 male and 5 female C57BL/6J mice, 3–5 months old, were used in the CPP assays for each treatment group. Time spent in the saline-paired chamber was subtracted from time spent in the drug-paired chamber to score the pre-test and post-test. CPP score (or change from baseline) was determined by subtracting the pre-test score from the post-test score. A significant positive CPP score is indicative of reward-related behavior, while a significant reduction is indicative of aversion-related behavior.
No sex differences were observed and data for males and females were combined (see Results for specifics). Data are expressed as a change in baseline preference, which was analyzed using a one-way ANOVA with a post hoc Tukey.

For series [3] the following is noted: reported; ref 1 (supplement); cited from earlier work.
The mark [4] stands for this setting: in the presence of 100 µM nicotine.

Where two headings read alike, the source gives them in different places.

T1 sequence (O70174 31-629): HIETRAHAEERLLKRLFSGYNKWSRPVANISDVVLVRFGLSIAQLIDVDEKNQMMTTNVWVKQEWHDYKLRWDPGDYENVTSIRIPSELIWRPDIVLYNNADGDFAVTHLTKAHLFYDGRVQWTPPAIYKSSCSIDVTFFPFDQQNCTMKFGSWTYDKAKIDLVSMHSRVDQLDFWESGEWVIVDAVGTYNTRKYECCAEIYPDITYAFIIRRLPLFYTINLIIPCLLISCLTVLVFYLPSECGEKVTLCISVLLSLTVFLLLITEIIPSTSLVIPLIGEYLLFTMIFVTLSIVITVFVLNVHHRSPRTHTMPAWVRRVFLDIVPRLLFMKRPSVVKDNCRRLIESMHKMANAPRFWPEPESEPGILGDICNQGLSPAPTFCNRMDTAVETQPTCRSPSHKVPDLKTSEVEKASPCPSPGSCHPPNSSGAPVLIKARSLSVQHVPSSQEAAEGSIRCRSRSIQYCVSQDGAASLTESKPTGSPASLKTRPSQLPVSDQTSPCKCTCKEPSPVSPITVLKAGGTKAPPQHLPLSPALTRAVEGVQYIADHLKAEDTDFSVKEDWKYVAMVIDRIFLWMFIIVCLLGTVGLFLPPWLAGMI
T1 sequence (Q9ERK7 26-501): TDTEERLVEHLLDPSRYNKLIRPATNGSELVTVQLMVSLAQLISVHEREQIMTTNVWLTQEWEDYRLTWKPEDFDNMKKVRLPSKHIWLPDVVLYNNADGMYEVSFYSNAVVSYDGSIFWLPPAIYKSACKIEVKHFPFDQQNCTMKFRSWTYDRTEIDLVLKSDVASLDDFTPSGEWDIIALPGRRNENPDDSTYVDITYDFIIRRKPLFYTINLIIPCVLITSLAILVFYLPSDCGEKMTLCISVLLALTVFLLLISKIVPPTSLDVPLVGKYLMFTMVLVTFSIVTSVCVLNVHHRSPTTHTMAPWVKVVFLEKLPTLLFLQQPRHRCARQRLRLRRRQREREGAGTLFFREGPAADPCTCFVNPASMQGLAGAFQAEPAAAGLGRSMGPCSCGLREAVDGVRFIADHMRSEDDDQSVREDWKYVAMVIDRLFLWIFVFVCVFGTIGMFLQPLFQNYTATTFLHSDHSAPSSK

Turning to `O=C(NC1CCCCC1)c1ccc(-c2ccccc2)cc1` [VBJ032], the “concentration at which maximum increase occurs” value at mouse α4β2 nAChRs (setting [4]) worked out at 50 µM. The IC50 in the series with hTRPM8 was 49000 ± 1000 nM.
Regarding `O=C(NC1CCCCCCC1)c1ccc(-c2ccccc2)cc1` [VBJ051], the “concentration at which maximum increase occurs” value at mouse α4β2 nAChRs (setting [4]) turned out to be 50 µM. The half-inhibitory concentration (IC50) in the series with hTRPM8 is 62 ± 1 nM.
`O=C(NC(C1CCCCC1)C1CCCCC1)c1ccc(-c2ccccc2)cc1` [VBJ098]: the “activity as an agonist, PM, or antagonist” value on mouse α4β2 nAChRs (α4β2 nAChRs) was “no activity”.
As for `O=C(NC1CCC2CCCCC2C1)c1ccc(-c2ccccc2)cc1` (stereo not drawn) [VBJ104], in the series on MDR1, the efflux ratio at 120 min, 5 μM came out at 0.685. In addition, the Papp at 120 min, 5 μM with MDR1 (MDCK-MDR1, pH 7.4, Papp R2) turned out to be 1.67 ×10⁻⁶ cm/s. Further, in the series with MDR1 (MDCK-MDR1, pH 7.4, Papp average), the Papp at 120 min, 5 μM amounted to 1.79 ×10⁻⁶ cm/s. The compound also gave a recovery at 120 min, 5 μM in the series on MDR1 (A-to-B, 5 μM) of 70.8%. The same compound registered a recovery at 120 min, 5 μM in the series with MDR1 (B-to-A, 5 μM) of 86.9%. In series [1] (MDCK-MDR1), the “Brain Penetration Classification” value was “Low” and the “MDR1-MDCK permeability efflux ratio (in words)” value is “low”. In series [1] (dog, MDCK-MDR1, 120 min, 5 μM, pH 7.4), the Papp average is 1.22 10-6 cm/s. Further, the Emax on mouse α4β2 nAChRs (N2a, read-out: Max Efficacy (Normalized to 100 µM Nicotine), in the presence of 100 µM nicotine, mean ± SEM) is 361%. Besides, on mouse α4β2 nAChRs (setting [4]), the “concentration at which maximum increase occurs” value is given as 100 µM. The “Max Efficacy (Normalized to 100 µM Nicotine)” value at mouse α4β2 nAChRs (in the presence of 100 µM nicotine, mean ± SEM) worked out at 360.7 ± 37.7%. In series [2] (mouse, microsomes), this compound gave a half-life of 11.3 min, a microsomal CLint of 122 µL/min/mg, an amount remaining at 0 h of 100% and a share remaining at 10 min of 40.8%. In series [2] (mouse, microsomes), the amount remaining at 20 min was 30.7%, the fraction remaining at 0.5 h amounted to 22.5% and the fraction remaining at 1 h was 10.3%. In the series on hTRPM8, the IC50 was 6 ± 1 nM. In the series with C57BL/6J mice (0.5 mg/kg nicotine plus 0.5 mg/kg VBJ104, compared to nicotine, p < 0.05), the “reward-related behavior (in words)” value is on record as “significant increase in reward-related behavior”. Moreover, the “reward-related behavior (in words)” value in the series with C57BL/6J mice (0.5 mg/kg nicotine plus 1.0 mg/kg VBJ104, p < 0.0001 vs saline, not vs nicotine alone) is given as “significant CPP compared to saline”. The CPP score in the series with C57BL/6J mice (female mice, 0.5 mg/kg nicotine plus 0.5 mg/kg VBJ104, intraperitoneal) is listed as 269.8. In the series on C57BL/6J mice (male mice, 0.5 mg/kg nicotine plus 0.5 mg/kg VBJ104, intraperitoneal), the CPP score is reported as 261.5.
On to `O=C(NC1CCc2ccccc2C1)c1ccc(-c2ccccc2)cc1` (stereo not drawn) [VBJ109], for which, at mouse α4β2 nAChRs (setting [4]), the “concentration at which maximum increase occurs” value is reported as 50 µM. Also, the IC50 with hTRPM8 was 52 ± 1 nM.
`C[C@H]1O[C@@H](O[C@H]2[C@@H](O)C[C@H](O[C@H]3[C@@H](O)C[C@H](O[C@H]4CC[C@@]5(C)[C@H](CC[C@@H]6[C@@H]5C[C@@H](O)[C@]5(C)[C@@H](C7=CC(=O)OC7)CC[C@]65O)C4)O[C@@H]3C)O[C@@H]2C)C[C@H](O)[C@@H]1O` [digoxin, reference compound]: the efflux ratio at 120 min, 5 μM in the series with MDR1 stood at 299. The Papp at 120 min, 5 μM in the series on MDR1 (MDCK-MDR1, pH 7.4, Papp average, A-to-B, 5 μM) amounted to 0.0612 ×10⁻⁶ cm/s; with MDR1 (MDCK-MDR1, pH 7.4, Papp average, B-to-A, 5 μM) it was 18.3 ×10⁻⁶ cm/s.
`CN1CCC[C@H]1c1cccnc1` [nicotine, Nicotine ditartrate dihydrate, reference compound]: the “T1/2 of nicotine in mice” value in series [3] was 6 to 7 min. The “place preference (in words)” value in the series on C57BL/6J mice (0.5 mg/kg nicotine, males and females combined, post hoc Tukey) was “significant place preference”. For the same compound, the CPP score in the series on C57BL/6J mice (female mice, 0.5 mg/kg nicotine, intraperitoneal) worked out at 127.5; in the series with C57BL/6J mice (male mice, 0.5 mg/kg nicotine, intraperitoneal), 131.2.
For `C[C@]12CC[C@H]3[C@@H](CCC4=CC(=O)CC[C@@]43C)[C@@H]1CC[C@@H]2O` [testosterone, reference compound], the half-life in series [2] (mouse liver microsomes) came to 4.58 min. In addition, the microsomal CLint in series [2] (mouse liver microsomes, read-out: CLint) is 302 µL/min/mg.

As a reminder, the IC50 is the midpoint of a concentration-inhibition curve. A word on the efflux ratio: it is the permeability from basolateral to apical divided by that in the opposite direction, in the common usage. The Papp is the rate of passage across a membrane or cell layer, normalised by area and donor concentration. As a reminder, the half-life is the time needed for the level to fall by half in the phase considered. The term fraction remaining denotes the share of the starting amount still present when the sample was taken.

These data come from paper PMC8398432 (Molecules, 2021).
